Laboratory results from paper PMC4827351 (Chemical Science, 2015).
Entries after “also recorded” stand apart in the source; their conditions may differ.

Experiments:
[1] = tested on: TPCK-treated trypsin (Worthington); test: 0.01 mg mL^–1 trypsin (1 : 100 trypsin : proHD6 (w/w)) in 100 mM Tris–HCl, 20 mM CaCl2, pH 8.0; conditions: room temperature, up to 120 min
[2] = intestinal luminal aspirates obtained by endoscopy (ileal fluid); conditions: human
[3] = molecular target: the molecule itself; test: AUC; sedimentation equilibrium; proHD6 30, 60 and 120 μM in 10 mM sodium phosphate pH 7.4, 30 000, 36 000 and 42 000 rpm, 20 °C, global fit with SEDPHAT; monomer to dimer

## EPLQAEDDPLQAKAYEADAQEQRGANDQDFAVSFAEDASSSLRALGSTRAFTCHCRRSCYSTEYSYGTCTVMGINHRFCCL
[1]
  cleaved bond: Arg68-Ala69, 1 min
  fragment found: EPLQAEDDPLQAK, 1 min; also recorded: GANDQDFAVSFAEDASSSLR, 1 min
[2]
  cleaved bond: Arg68-Ala69

## AFTCHCRRSCYSTEYSYGTCTVMGINHRFCCL
[1]
  not cleaved: resistant to trypsin-catalyzed degradation

B1: proHD6 (81-residue propeptide of human α-defensin 6) (natural protein, UniProt Q01524 20-100, looked up)
chain: EPLQAEDDPLQAKAYEADAQEQRGANDQDFAVSFAEDASSSLRALGSTRAFTCHCRRSCYSTEYSYGTCTVMGINHRFCCL
notes: N-terminus EPLQ; Oxidatively folded regioisomer with the three native disulfide bonds (Cys4-Cys31, Cys6-Cys20, Cys10-Cys30, numbers count on mature HD6); Ulp1 cleavage leaves the native 81-residue peptide; also called HD6 propeptide; native proHD6; source: E. coli BL21(DE3) as His6-SUMO-proHD6, purified (Ni-NTA), Ulp1 digestion, reduction, oxidative folding, preparative HPLC; not shown: His6, …
[3]
  stoichiometry N: 2
